Experimental data reported in EP0642504B1 (priority 1991, dated 1993).
Marks after values point to notes of the source that are not given here.

Experiments:
[1] = test system: strychnine induced lethality; assay: Protection against strychnine induced lethality; assay type: in vivo; conditions: rats
Source text: (§1) The present compounds are active in several tests generally used to indicate neuroprotection.

[2] = test system: picrotoxin induced lethality; assay: Protection against picrotoxin induced lethality; assay type: in vivo, Balb/c male mice; conditions: drug 10 mg/kg, 120 min before picrotoxin (8 mg/kg) s.c.; no drug 0/17
Source text: as §1

[3] = test system: mouse; assay: Mouse hot plate test (55°C) for antinociception; assay type: in vivo
Description: In the hot plate test for analgesia an aluminum surface was maintained at 55 ± 1°C by circulating water through passages in the metal. A clear plastic cylinder 18 cm in diameter and 26 cm high was placed on the surface to prevent escape. The end point was taken when the mouse either performed a hind paw lick or jumped off the surface; in no case were the animals kept for more than 30 secs on the plate. Mice were never used more than one time; control values were always measured at 11 a.m. and test values at 2 p.m. The drugs were administered orally 90 min before the hot plate test. The percent change in response time (latency) was calculated by comparing the mean of the control values with the mean of the test values and statistical signficance determined by a paired t-test analysis using software (Statview, 512) from Brainpower, Inc., Calabasas, Ca.

[4] = test system: mouse; assay: Ring test for cataleptic effects; assay type: in vivo; conditions: 5-min test period, vehicle 7.7 ± 4.4
Description: The lack of CNS activity for the compounds described herein may be seen from the data shown in Table V. This was measured by the so-called "ring test" [Pertwee, R.G., et al., J. Pharmacol., 46, 753 (1972)] in which the cataleptic effects of cannabinoids can be quantitated. The compounds produced little or no response when compared with the parent drug.
The cataleptic response was measured using the ring test. Mice were placed on a horizontal wire ring 5.5 cm in diameter, which was attached to a 16 cm vertical rod. The hind paws and fore paws were placed at opposite sides of the ring. It is important that the ambient temperature is maintained at 30°C and that the environment be free of auditory stimuli and bright lights. The criteria for immobility are detailed by Pertwee. The response is calculated as the fraction of time the mouse is immobile over a 5-min test period. Measurements were always done between 2 and 4 p.m. and the animals were used only once.

[5] = test system: N-methyl-D-aspartate (NMDA) induced lethality; assay: Protection against NMDA induced lethality; assay type: in vivo, Balb/c male mice; conditions: 90 min before NMDA (125 mg/kg) s.c., no drug 0/20
Source text: as §1

CCCCCCC(C)(C)c1cc(OC(C)=O)c2c(c1)OC(C)(C)[C@H]1CC=C(C(=O)O)C[C@H]21 [HU-245, (3S,4S)-THC-DMH-7-oic acid, acetate]
protection against strychnine induced lethality [1]: protects against strychnine induced lethality | Survival rate (number of survivors out of total number of animals used) [2]: 5/8 | percent change in latency ([3]; dose 0.025 mg/kg orally 90 min before the hot plate test): 10.7(5) percent | percent change in latency ([3]; dose 0.050 mg/kg orally 90 min before the hot plate test): 66.2(5)* percent | percent change in latency ([3]; dose 0.10 mg/kg orally 90 min before the hot plate test): 62.2(5)* percent | percent change in latency ([3]; dose 0.25 mg/kg orally 90 min before the hot plate test): 68.1(10)* percent | percent change in latency ([3]; dose 0.50 mg/kg orally 90 min before the hot plate test): 49.9(5)* percent | percent change in latency ([3]; dose 1.0 mg/kg orally 90 min before the hot plate test): 12.5(5) percent | Response ± SD (means of the fraction of time the mice remained immobile) ([4]; dose 0.5 mg/kg): 6.8 ± 2.4 | Response ± SD (means of the fraction of time the mice remained immobile) ([4]; dose 1.0 mg/kg): 12.0 ± 6.0 | Survival rate (number of survivors out of total number of animals used) ([5]; drug 2.5 mg/kg): 6/12 | Survival rate (number of survivors out of total number of animals used) ([5]; drug 10 mg/kg): 8/10
